The values below are quoted from earlier work in patent publication US6025374A, “Azetidine, pyrrolidine and piperidine derivatives as 5HT1 receptor agonists” (Merck Sharp & Dohme, Ltd., priority 1994, dated 2000).

The structures appear in SMILES notation.

The conditions of this series: therapeutic doses; literature.

Consider `CNS(=O)(=O)Cc1ccc2[nH]cc(CCN(C)C)c2c1` [sumatriptan], for which the “adverse events in humans” value is listed as “certain adverse cardiovascular events”.
